Source: patent US20020155088A1, “Tumor treatment by using oligoaniline” (priority 2001, published 2002)

Key:
ferricytochrome C = test: In vitro irradiation-induced superoxide generation (ferricytochrome C reduction); assay type: biochemical; conditions: 25 μM A16S aqueous solution, fluorescence light 27 watts, irradiation time 0, 30, 60, 90 minutes
Procedure: The mixture thus obtained was added into wells of a 24-well plate, and exposed to fluorescence light source (27 watts) for 0-90 minutes. The distance between the plate cover and the light source was 5-6 cm. The reduction extent of ferricytochrome C was evaluated based on its absorbance at 550 nm, which corresponded to the increase of the quantity of reduced ferrocytochrome C.

[1] = tested on: Fibrosarcoma cells (CCRC60037) and sarcoma 180 cells; test: In vitro irradiation-induced cytotoxicity based on tumor cell viability (MTT/formazon)
Procedure: An in vitro inhibition assay can be performed to preliminarily evaluate an oligoaniline's ability to inhibit the growth of tumor cells. For example, an oligoaniline solution is added to a pre-incubated cell suspension. Subsequently, the cell suspension is irradiated with fluorescence light, followed by further incubation. A 3-(4,5-dimethylthiazol-2-yl)-2,5-diphenyl-tetrazolium bromide solution is then added to the cell suspension to react with mitochrondrial dehydrogenase to form formazon, which is extracted with dimethyl sulfoxide (DMSO). The DMSO extract solution is immediately used for optical measurement to determine the formazon quantity, which correlates with the quantity of dehydrogenase or the relative number of the living cells.
Two types of tumor cells used in this study were prepared as follows: Fibrosarcoma cells (CCRC60037) and sarcoma 180 cells (obtained form Biochemical Institute of Chung Shan Medical and Dental College, Taiwan) were maintained and cultured in an cc-modified eagle medium (MEM) containing L-glutamine and phenol red, 10% fetal bovine serum, and antibiotics (100 units/mL of penicillin G and 100 μg/mL streptomycin sulfate). The cells were incubated in the dark in 95% humidified air plus 5% CO2, harvested by treatment with trypsin-EDTA, and then suspended in an α-MEM at the concentration of 1×10^4 cells/mL.
The cell suspension thus obtained was placed in wells of a 24-well plate (500 μL each) and pre-incubated at 37° C. for 24 hours. A16S solutions of various concentrations (0-10 μM) were then added to the wells (500 μL each). The wells were irradiated with fluorescence light (27 watts) for 0-60 minutes. The distance between the plate cover and the light source was 5-6 cm. After irradiation, the cells were further incubated for 48 hours. A solution of 3-(4,5-dimethylthiazol-2-yl)-2,5-diphenyl-tetrazolium bromide (0.5% in PBS; 100 μL each) was then added to each cell suspension, thereby causing the cells to produce formazon. After incubation at 37° C. for 3 hours, the suspension medium was discarded. Formazon formed in the cells from each well was extracted with DMSO (1.0 mL), and the DMSO extract solution was immediately measured for absorbance at […]. The absorbance directly correlated with the quantity of formazon, and thus with the quantity of dehydrogenase enzyme or the relative number of the living cells (i.e., viability). […] A maximal photodynamic cytotoxicity efficacy of >90% was obtained at an A16S concentration of 5.0-10.0 μM and an irradiation time of 60 minutes.

[2] = tested on: Murine sarcoma 180 cells (subcutaneous tumors); test: In vivo photodynamic therapy study in tumor-bearing mice; parameters: species or system male ICR mice; conditions: 10 mg/kg intraperitoneal
Excerpt: Oligoanilines that show efficacy in preliminary studies can be further tested to confirm their efficacy by an in vivo assay on tumor-bearing mice. For example, see Chiang, et al. Proc. Electrochem. Soc., 1999, 99-12, 238-249. More specifically, a tumor-bearing mouse can be first administered with an oligoaniline to be tested in PBS close to the tumor site. The mouse is then kept in the dark while the oligoaniline is circulated to the tumor site. The tumor site is exposed by removing the hair on and around it, and then irradiated with a laser beam or other light source. After the irradiation, the growth of the tumor in the mouse is examined at different time intervals. The inhibitory effect can be evaluated by measuring the body weights of the mouse and the volumes of the tumor. After the mouse is sacrificed, the final body weight, the weights of various organs, and the final volume and weight of the tumor are measured; and blood is collected for biochemistry and hematology analyses. The data are evaluated used to determine the photodynamic therapeutic and other effects. […]
The mice in groups (1) and (2) were subsequently kept in the dark for 24 hours, and then anesthetized with avertine (0.3 mL/head). […] After the irradiation, the body weights and tumor volumes of the mice were measured every 5 days for 30 days. […]

Sulfobutylated Hexadecaaniline [A16S]
amount of superoxide free radicals (ferrocytochrome C absorbance at 550 nm) (ferricytochrome C): increased as the irradiation time increased | cell viability ([1]; A16S 0-10 μM, fluorescence light 27 watts, irradiation 0-60 minutes, 48 hours further incubation): decreased as the A16S dosage and irradiation time increased | maximal photodynamic cytotoxicity efficacy ([1]; A16S 5.0-10.0 μM, irradiation time 60 minutes): > 90% | IC50 ([1]; irradiation time 60 minutes): 1000 nM | viable cells ([1]; irradiation time 60 minutes, A16S concentration increased from 0 to 2.5 μM): a sharp loss of viable cells was observed | cytotoxicity in the absence of light irradiation ([1]; no irradiation, highest A16S concentration 10.0 μM): no cytotoxicity was observed | average tumor weight relative to tumor control group ([2]; laser 633 nm 100 J/cm^2, day 30): about 40% | tumor growth rates versus tumor control group ([2]; laser 633 nm 100 J/cm^2, entire 30 day study period): much lower
